Test results as given in US11964938B2, “3-phenyl-4-hexynoic acid derivatives as GPR40 agonists” (CELON PHARMA S.A., priority 2018, dated 2024).
Structures can show the parent of a compound that is named as a salt.

Assays:
MRP4 = molecular target: T1, MRP4 (Homo sapiens, UniProt O15439); experiment: Vesicular transport inhibition assay, MRP4; format: biochemical; conditions: membrane vesicles from HEK293 cells
T1 construct: host or cells: HEK293 (membrane vesicles)
T1 sequence (O15439 1-1325): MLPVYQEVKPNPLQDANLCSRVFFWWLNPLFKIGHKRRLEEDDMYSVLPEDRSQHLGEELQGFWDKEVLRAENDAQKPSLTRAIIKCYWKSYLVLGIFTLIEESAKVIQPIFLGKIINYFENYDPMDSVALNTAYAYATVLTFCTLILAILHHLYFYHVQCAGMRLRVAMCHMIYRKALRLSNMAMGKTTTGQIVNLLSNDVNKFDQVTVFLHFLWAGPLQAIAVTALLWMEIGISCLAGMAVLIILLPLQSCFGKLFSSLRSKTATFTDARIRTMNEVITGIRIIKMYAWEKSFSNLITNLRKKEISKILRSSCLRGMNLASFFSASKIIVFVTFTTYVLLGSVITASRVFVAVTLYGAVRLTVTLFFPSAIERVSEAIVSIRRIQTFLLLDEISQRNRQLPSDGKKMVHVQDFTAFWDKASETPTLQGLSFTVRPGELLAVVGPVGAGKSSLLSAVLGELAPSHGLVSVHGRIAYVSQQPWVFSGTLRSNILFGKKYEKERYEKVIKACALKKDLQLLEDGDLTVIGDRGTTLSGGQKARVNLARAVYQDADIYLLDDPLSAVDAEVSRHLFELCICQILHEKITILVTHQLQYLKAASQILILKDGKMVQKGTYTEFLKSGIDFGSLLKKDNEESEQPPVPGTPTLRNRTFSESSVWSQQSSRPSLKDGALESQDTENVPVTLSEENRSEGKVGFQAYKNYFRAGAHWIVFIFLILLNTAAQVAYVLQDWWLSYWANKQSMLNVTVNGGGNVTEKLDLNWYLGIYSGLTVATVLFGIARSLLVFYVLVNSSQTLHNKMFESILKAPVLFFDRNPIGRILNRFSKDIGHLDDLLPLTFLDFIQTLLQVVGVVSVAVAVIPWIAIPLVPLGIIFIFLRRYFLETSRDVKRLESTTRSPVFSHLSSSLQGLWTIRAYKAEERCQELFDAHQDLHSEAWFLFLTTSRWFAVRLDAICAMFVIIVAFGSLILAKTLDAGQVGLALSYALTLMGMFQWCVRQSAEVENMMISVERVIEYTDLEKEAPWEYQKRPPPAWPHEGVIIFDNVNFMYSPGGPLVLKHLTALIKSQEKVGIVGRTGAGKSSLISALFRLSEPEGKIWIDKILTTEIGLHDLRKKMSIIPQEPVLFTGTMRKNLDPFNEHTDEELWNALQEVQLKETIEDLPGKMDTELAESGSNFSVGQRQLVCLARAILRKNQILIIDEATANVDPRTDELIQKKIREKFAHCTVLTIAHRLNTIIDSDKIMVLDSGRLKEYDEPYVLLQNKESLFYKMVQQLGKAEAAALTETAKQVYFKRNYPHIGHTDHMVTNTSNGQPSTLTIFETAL
Method: Experiment B4: Bile Acid Transporters Inhibition in the Liver. […] The compound was tested on a panel of 10 transporters: BSEP, MRP2, MRP3, MRP4 in a vesicular transport inhibition assay and NTCP, OAT1, OAT2v1, OATP1A2, OATP1B1, OATP1B3 in an uptake transporter inhibition assays. Vesicular transport inhibition assay was performed on membrane vesicles isolated from mammal HEK293 cells overexpressing human ABC transporters. Tested compound were incubated with vesicles and substrates for respective tested transporters. Incubation was performed in the presence of 4 mM ATP or AMP in order to differentiate between uptake by a transporter and passive diffusion into vesicles. In the case of MRP2 and MRP3, reactions were performed in the presence of 2 mM glutathione. Tested compounds were added to the reaction mixture dissolved in 0.75 μl of a solvent (1% of final incubation volume). Reaction mixtures were preincubated for 15 minutes at 37±1° C. Reactions were started by the addition of 25 μl of 12 mM MgATP (or 12 mM AMP) in test buffer, as a background control, separately preincubated.

OATP1A2 = molecular target: T2, OATP1A2 (Homo sapiens, UniProt P46721); experiment: Uptake transporter inhibition assay, OATP1A2; format: cell-based; conditions: HEK293 cells overexpressing transporter
T2 construct: host or cells: HEK293
T2 sequence (P46721 1-670): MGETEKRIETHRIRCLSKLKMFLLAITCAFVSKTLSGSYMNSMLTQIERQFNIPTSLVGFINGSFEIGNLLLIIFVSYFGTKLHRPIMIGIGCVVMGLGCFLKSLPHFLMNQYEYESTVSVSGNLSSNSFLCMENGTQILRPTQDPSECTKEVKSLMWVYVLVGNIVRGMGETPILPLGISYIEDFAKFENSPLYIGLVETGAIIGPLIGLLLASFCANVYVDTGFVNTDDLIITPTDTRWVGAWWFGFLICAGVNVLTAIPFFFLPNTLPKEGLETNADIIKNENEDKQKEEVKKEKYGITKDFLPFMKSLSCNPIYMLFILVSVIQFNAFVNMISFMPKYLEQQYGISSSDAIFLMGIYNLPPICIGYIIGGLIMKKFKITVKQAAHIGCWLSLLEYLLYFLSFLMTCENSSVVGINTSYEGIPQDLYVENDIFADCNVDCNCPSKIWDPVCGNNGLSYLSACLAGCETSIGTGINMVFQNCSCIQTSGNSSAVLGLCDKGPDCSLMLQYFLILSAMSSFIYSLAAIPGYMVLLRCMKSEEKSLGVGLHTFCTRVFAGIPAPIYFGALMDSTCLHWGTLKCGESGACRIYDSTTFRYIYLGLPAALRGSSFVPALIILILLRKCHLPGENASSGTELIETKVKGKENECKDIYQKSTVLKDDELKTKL
Method: Experiment B4: Bile Acid Transporters Inhibition in the Liver.
The compound was tested on a panel of 10 transporters: BSEP, MRP2, MRP3, MRP4 in a vesicular transport inhibition assay and NTCP, OAT1, OAT2v1, OATP1A2, OATP1B1, OATP1B3 in an uptake transporter inhibition assays.
Transporter uptake inhibition test was performed on mammal HEK293 cells overexpressing of a respective transporter. Cells were cultured at 37±1° C. and seeded on 96-well tissue culture plate at 1×10^5/well. Substrate was removed prior to experiment and cells were washed twice with 100 μl of respective buffer (HK pH 7.4 for OATP1B1 and HBSS pH 7.4 for NTCP, OAT1, OAT2v1, OATP1A2, and OATP1B3). Uptake studies were performed at 37±1° C. in 50 μl of respective buffer containing radioactively tagged substrate and tested compound or solvent.
After experiment cells were washed twice with 100 μl of ice-cold respective buffer and lysed with 50 μl of 0.1M NaOH. Transport of radioactively tagged substrate was determined by scintillation counter measurement.

Q: What does the source list for `Cc1cc(OCCCS(C)(=O)=O)cc(C)c1-c1cccc(COc2ccc3c(c2)OC[C@H]3CC(=O)O)c1` [Example R1, 2[(3S)-6-({3-[4-(3-methanesulfonylpropoxy)-2,6-dimethylphenyl]-phenyl}methoxy)-2,3-dihydro-1-benzofuran-3-yl]acetic acid, reference compound]?
A: IC50 (MRP4): 6.9 µM; IC50 (OATP1A2): 10.6 µM

Q: Which IC50 (MRP4) does the source give for `CC#C[C@@H](CC(=O)O)c1ccc(OCC(C)=C(C)C)cc1` [Example S1, (3S)-3-{4-[(2,3-dimethylbut-2-en-1-yl)oxy]phenyl}hex-4-ynoic acid calcium salt] here?
A: 131 µM

Q: What about the IC50 (OATP1A2) of the same compound?
A: 118 µM
